Data taken from the NIST ThermoML archive (doi:10.1016/j.jct.2015.02.010).
“And” between values parts separate entries of the source, which are not always exact repeats. Equal values may be shown once.

Key:
[1] = Crystal; for vapor or sublimation pressure: Calculated from knudsen effusion weight loss; for Normal melting temperature: DTA
[2] = Molar enthalpy of transition or fusion; settings: Crystal; DSC

CC(=O)Oc1cccc(C(=O)O)c1 [3-acetoxybenzoic acid]
[1]
Settings	vapor or sublimation pressure
344.16 K	0.000129 kPa and 0.000124 kPa and 0.000123 kPa
346.15 K	0.000158 kPa and 0.000163 kPa and 0.000157 kPa
348.2 K	0.000198 kPa and 0.000199 kPa and 0.000205 kPa
350.13 K	0.000251 kPa and 0.00025 kPa and 0.000257 kPa
353.17 K	0.000355 kPa and 0.000357 kPa and 0.00037 kPa
356.21 K	0.000497 kPa and 0.000499 kPa and 0.00051 kPa
358.16 K	0.000631 kPa and 0.000652 kPa
360.17 K	0.000813 kPa and 0.00081 kPa
362.16 K	0.000967 kPa and 0.000966 kPa and 0.001004 kPa

Settings	Molar enthalpy of transition or fusion [kcal/mol]	Normal melting temperature [°C]
[1]	–	131.61
[2]	6.28	–

CC(=O)Oc1ccccc1C(=O)O [2-acetoxybenzoic acid]
[1]
Settings	vapor or sublimation pressure
341.11 K	0.00012 kPa and 0.000119 kPa
343.24 K	0.000147 kPa and 0.000158 kPa
345.28 K	0.000194 kPa and 0.000203 kPa
347.1 K	0.00023 kPa and 0.000238 kPa
349.24 K	0.00029 kPa and 0.000305 kPa
351.27 K	0.000378 kPa and 0.000387 kPa
353.1 K	0.000478 kPa and 0.000471 kPa
355.28 K	0.000599 kPa and 0.000643 kPa
357.27 K	0.000744 kPa and 0.000796 kPa
359.23 K	0.00089 kPa and 0.000966 kPa
361.11 K	0.001165 kPa

Settings	Molar enthalpy of transition or fusion [kcal/mol]	Normal melting temperature [°C]
[1]	–	134.23
[2]	8.09	–

CC(=O)Nc1ccccc1C(=O)O [2-acetamidobenzoic acid]
[1]
Settings	vapor or sublimation pressure
367.17 K	8.3e-05 kPa
369.28 K	0.000109 kPa and 0.000106 kPa and 0.000108 kPa
371.16 K	0.000128 kPa
373.16 K	0.00016 kPa and 0.000163 kPa
375.26 K	0.000207 kPa and 0.00021 kPa
377.16 K	0.000248 kPa and 0.000255 kPa and 0.000258 kPa
379.19 K	0.000305 kPa and 0.000303 kPa and 0.000308 kPa
381.29 K	0.000385 kPa and 0.000373 kPa and 0.000378 kPa
383.16 K	0.000438 kPa
385.15 K	0.000577 kPa and 0.000561 kPa and 0.000574 kPa
387.26 K	0.000697 kPa and 0.000711 kPa and 0.00078 kPa
389.15 K	0.000829 kPa and 0.00084 kPa

Settings	Molar enthalpy of transition or fusion [kcal/mol]	Normal melting temperature [°C]
[1]	–	181.96
[2]	7.01	–

CC(=O)Nc1cccc(C(=O)O)c1 [3-(acetylamino)benzoic acid]
[1]
Settings	vapor or sublimation pressure
423.22 K	0.000156 kPa
425.28 K	0.000193 kPa and 0.000189 kPa
427.09 K	0.000223 kPa and 0.000219 kPa
429.23 K	0.000279 kPa and 0.000283 kPa
431.28 K	0.000336 kPa and 0.000341 kPa
433.24 K	0.00041 kPa and 0.000419 kPa
435.1 K	0.000495 kPa and 0.000496 kPa
437.29 K	0.000619 kPa and 0.000621 kPa
439.23 K	0.000751 kPa and 0.000744 kPa
441.1 K	0.000886 kPa and 0.000907 kPa

Settings	Molar enthalpy of transition or fusion [kcal/mol]	Normal melting temperature [°C]
[1]	–	249.04
[2]	10.1	–
